The source of these data is paper PMC6017136, “Efficient Synthesis and Bioactivity of Novel Triazole Derivatives” (Molecules : A Journal of Synthetic Chemistry and Natural …, 2018).

Holding throughout (experiment): microbe, parasite or virus in culture
Assay [1] relates to Phytophthora capsici P. CapasiciLeonian. The note with it: read-out: Inhibition Ratio (%) / P. CapasiciLeonian.
Assay [2] concerns Sclerotinia sclerotiorum (Lib.) de Bary. The settings on record: read-out: Inhibition Ratio (%) / S. sclerotiorum.
The test system of another assay is Botrytis cinerea Pers. The settings on record: read-out: Inhibition Ratio (%) / B. cinerea.
For another assay, the system named is Pyricularia oryzae Cav. The note with it: read-out: Inhibition Ratio (%) / Pyricularia oryzae Cav.
In assay [3] the test system is Fusarium oxysporum Schl. F.sp. vasinfectum (Atk.) Snyd. & Hans. The note with it: read-out: Inhibition Ratio (%) / Fusarium oxysporum Schl. F.sp. vasinfectum (Atk.) Snyd. & Hans.

Molecules are shown by their SMILES.

As to `CO[C@@H]1[C@H]2OC(C)(C)O[C@H]2O[C@@H]1Cn1cc(-c2ccc(Cl)cc2)nn1` [1-f, Furan glucosyl-1,2,3-triazole (1-f)], the inhibition at 50 µg/mL in assay [1] stood at 81.2%; in assay [2], 85.1%; in the assay with Botrytis cinerea Pers, 71%; in the assay with Pyricularia oryzae Cav., 82.4%; in assay [3] it was 89%.

Regarding `CO[C@H]1[C@@H](Cn2cc(-c3ccccc3)nn2)OC(O)[C@@H]1O` (stereo partly drawn) [3-a, Furan glucosyl-1,2,3-triazole (3-a)], the inhibition at 50 µg/mL in assay [1] is 40.1%; in assay [2], 30.3%; with Botrytis cinerea Pers, 33.3%; with Pyricularia oryzae Cav., 61.2%; in assay [3] it was 58.7%.

Take `CO[C@H]1[C@@H](Cn2cc(-c3cccc(C)c3)nn2)OC(O)[C@@H]1O` (stereo partly drawn) [3-b, Furan glucosyl-1,2,3-triazole (3-b)]: the inhibition at 50 µg/mL in assay [1] is 35.6%; in assay [2], 28.4%; in the assay with Botrytis cinerea Pers it was 15.3%; in the assay with Pyricularia oryzae Cav. it was 35.4%; in assay [3] it was 34.1%.

Consider `COc1ccc(-c2cn(C[C@H]3OC(O)[C@H](O)[C@H]3OC)nn2)cc1` (stereo partly drawn) [3-c, Furan glucosyl-1,2,3-triazole (3-c)], for which the inhibition at 50 µg/mL in assay [1] was 38.9%; in assay [2] it was 31.5%; in the assay with Botrytis cinerea Pers, 10.4%; in the assay with Pyricularia oryzae Cav. it was 30.1%; in assay [3] it was 29.3%.

As for `CO[C@H]1[C@@H](Cn2cc(-c3ccc(F)cc3)nn2)OC(O)[C@@H]1O` (stereo partly drawn) [3-d, Furan glucosyl-1,2,3-triazole (3-d)], the inhibition at 50 µg/mL stood at 50.2% in assay [1]; 38.4% in assay [2]; 19.1% in the assay with Botrytis cinerea Pers; 47.8% in the assay with Pyricularia oryzae Cav.; 40.2% in assay [3].

Regarding `CO[C@H]1[C@@H](Cn2cc(-c3ccc([N+](=O)[O-])cc3)nn2)OC(O)[C@@H]1O` (stereo partly drawn) [3-e, Furan glucosyl-1,2,3-triazole (3-e)], the inhibition at 50 µg/mL is 44.7% in assay [1]; 39.6% in assay [2]; 17.1% with Botrytis cinerea Pers; 23.1% in the assay with Pyricularia oryzae Cav.; 25.6% in assay [3].

For `CO[C@H]1[C@@H](Cn2cc(-c3ccc(Cl)cc3)nn2)OC(O)[C@@H]1O` (stereo partly drawn) [3-f, Furan glucosyl-1,2,3-triazole (3-f)], the inhibition at 50 µg/mL was 46.8% in assay [1]; 25.3% in assay [2]; 20.5% in the assay on Botrytis cinerea Pers; 50.7% with Pyricularia oryzae Cav.; 57.6% in assay [3].

Turning to `CO[C@H]1[C@@H](Cn2cc(C(C)O)nn2)OC(O)[C@@H]1O` (stereo partly drawn) [3-g, Furan glucosyl-1,2,3-triazole (3-g)], the inhibition at 50 µg/mL in assay [1] was found to be 23.1%; in assay [2] it was 13.7%; with Botrytis cinerea Pers it was 11.5%; in the assay with Pyricularia oryzae Cav., 21.5%; in assay [3] it was 23.4%.

Regarding `OC1O[C@H](Cn2cc(-c3ccccc3)nn2)[C@H](OCc2ccccc2)[C@H]1O` (stereo partly drawn) [4-a, Furan glucosyl-1,2,3-triazole (4-a)], the inhibition at 50 µg/mL in assay [1] was determined as 21.2%; in assay [2], 26.4%; in the assay with Botrytis cinerea Pers, 19.5%; in the assay with Pyricularia oryzae Cav., 37.8%; in assay [3], 35.4%.

With `Cc1cccc(-c2cn(C[C@H]3OC(O)[C@H](O)[C@H]3OCc3ccccc3)nn2)c1` (stereo partly drawn) [4-b, Furan glucosyl-1,2,3-triazole (4-b)], the inhibition at 50 µg/mL in assay [1] stood at 29.6%; in assay [2] it was 29.9%; in the assay on Botrytis cinerea Pers, 10.9%; in the assay on Pyricularia oryzae Cav., 27.8%; in assay [3], 27.1%.

`OC1O[C@H](Cn2cc(-c3ccc(F)cc3)nn2)[C@H](OCc2ccccc2)[C@H]1O` (stereo partly drawn) [4-d, Furan glucosyl-1,2,3-triazole (4-d)]: the inhibition at 50 µg/mL in assay [1] came out at 35.4%; in assay [2] it was 34.7%; in the assay on Botrytis cinerea Pers, 20.3%; in the assay on Pyricularia oryzae Cav., 35.6%; in assay [3] it was 37.8%.

Consider `OC1O[C@H](Cn2cc(-c3ccc(Cl)cc3)nn2)[C@H](OCc2ccccc2)[C@H]1O` (stereo partly drawn) [4-f, Furan glucosyl-1,2,3-triazole (4-f)], for which the inhibition at 50 µg/mL in assay [1] was found to be 38.7%; in assay [2], 31.7%; in the assay with Botrytis cinerea Pers, 22.2%; in the assay on Pyricularia oryzae Cav. it was 40.2%; in assay [3] it was 43.1%.

Turning to `CC(O)c1cn(C[C@H]2OC(O)[C@H](O)[C@H]2OCc2ccccc2)nn1` (stereo partly drawn) [4-g, Furan glucosyl-1,2,3-triazole (4-g)], the inhibition at 50 µg/mL in assay [1] was found to be 24.5%; in assay [2], 13.5%; with Botrytis cinerea Pers, 12.1%; with Pyricularia oryzae Cav. it was 21.3%; in assay [3], 20.9%.

For `CO[C@H]1C(Cn2cc(-c3ccccc3)nn2)OC(OC(C)=O)[C@@H]1OC(C)=O` (stereo partly drawn) [5-a, Furan glucosyl-1,2,3-triazole (5-a)], the inhibition at 50 µg/mL came out at 42.3% in assay [1]; 57.6% in assay [2]; 36.1% in the assay with Botrytis cinerea Pers; 62.7% in the assay with Pyricularia oryzae Cav.; 61.3% in assay [3].

On to `COc1ccc(-c2cn(C[C@H]3OC(OC(C)=O)[C@H](OC(C)=O)[C@H]3OC)nn2)cc1` (stereo partly drawn) [5-c, Furan glucosyl-1,2,3-triazole (5-c)], for which the inhibition at 50 µg/mL in assay [1] came out at 47.2%; in assay [2] it was 43.1%; with Botrytis cinerea Pers, 19.2%; with Pyricularia oryzae Cav. it was 40.8%; in assay [3] it was 30%.

In the case of `CO[C@H]1[C@@H](Cn2cc(-c3ccc(F)cc3)nn2)OC(OC(C)=O)[C@@H]1OC(C)=O` (stereo partly drawn) [5-d, Furan glucosyl-1,2,3-triazole (5-d)], the inhibition at 50 µg/mL in assay [1] was 65.2%; in assay [2], 67.6%; in the assay on Botrytis cinerea Pers, 23.2%; in the assay on Pyricularia oryzae Cav., 69.2%; in assay [3] it was 70.9%.

On to `CO[C@H]1[C@@H](Cn2cc(-c3ccc([N+](=O)[O-])cc3)nn2)OC(OC(C)=O)[C@@H]1OC(C)=O` (stereo partly drawn) [5-e, Furan glucosyl-1,2,3-triazole (5-e)], for which the inhibition at 50 µg/mL in assay [1] worked out at 67.7%; in assay [2] it was 64.9%; with Botrytis cinerea Pers it was 22.1%; with Pyricularia oryzae Cav., 56.9%; in assay [3], 69.5%.

In the case of `CO[C@H]1[C@@H](Cn2cc(-c3ccc(Cl)cc3)nn2)OC(OC(C)=O)[C@@H]1OC(C)=O` (stereo partly drawn) [5-f, Furan glucosyl-1,2,3-triazole (5-f)], the inhibition at 50 µg/mL in assay [1] turned out to be 68.2%; in assay [2] it was 56.1%; with Botrytis cinerea Pers, 27.6%; in the assay on Pyricularia oryzae Cav., 60.5%; in assay [3], 71.5%.

Regarding `CC(=O)OC1O[C@H](Cn2cc(-c3ccc(F)cc3)nn2)[C@H](OCc2ccccc2)[C@H]1OC(C)=O` (stereo partly drawn) [6-d, Furan glucosyl-1,2,3-triazole (6-d)], the inhibition at 50 µg/mL in assay [1] stood at 57.1%; in assay [2], 64.7%; in the assay with Botrytis cinerea Pers, 26.7%; in the assay on Pyricularia oryzae Cav., 50.2%; in assay [3], 58.6%.

In the case of `CC(=O)OC1O[C@H](Cn2cc(-c3ccc([N+](=O)[O-])cc3)nn2)[C@H](OCc2ccccc2)[C@H]1OC(C)=O` (stereo partly drawn) [6-e, Furan glucosyl-1,2,3-triazole (6-e)], the inhibition at 50 µg/mL in assay [1] was found to be 50.3%; in assay [2] it was 56.3%; with Botrytis cinerea Pers, 27.4%; with Pyricularia oryzae Cav. it was 48.9%; in assay [3], 59.3%.

On to `N#Cc1c(Cl)c(Cl)c(Cl)c(C#N)c1Cl` [Chlorothalonil], for which the inhibition at 50 µg/mL stood at 94.2% in assay [1]; 95.5% in assay [2]; 98% in the assay with Botrytis cinerea Pers; 89.2% in the assay with Pyricularia oryzae Cav.; 94.2% in assay [3].
